Reference: patent publication US5451518A, “Purified human ceramide-activated protein kinase” (Sloan-Kettering Institute for Cancer Research, priority 1992, dated 1995)
“Also recorded” adds a separate entry of the source. Like-named read-outs stand apart in the source and are kept apart here.

What was measured:
[1] = tested on: ceramide-activated protein kinase
Description: Homogenates were centrifuged at 500×g for 5 minutes to remove nuclei and at 200,000×g for 30 minutes to prepare microsomal membranes. Membranes were resuspended into homogenizing buffer (2.2 μg membrane protein μl^-1). For assay of kinase activity, the reaction mixture contained 20 μl of microsomal membrane, 40 μl EGFR peptide (4 mg ml^-1 in 25 mM Hepes, pH 7.4) and 100 μl buffer (50 mM HEPES, pH 7.4, 20 mM MgCl2) (40). Phosphorylation was initiated at 22° C. by addition of 40 μl [γ-^32 P] ATP (100 μM final concentration) and terminated at the indicated times by addition of 40 μl of 0.5M ATP in 90% formic acid. Phosphorylated peptide was eluted from a C18 Sep pak cartridge (Millipore), lyophilized, and resolved by C18 reverse phase HPLC using a linear gradient of acetonitrile. […] All assays were performed under conditions determined as linear for time and enzyme concentration. Enzyme activity was determined from the percent conversion of substrate to product and the specific radioactivity of [γ-^32 P] ATP. […] Values (mean ± range) represent duplicate determinations from two experiments.
Activity was measured by the transfer of ^32 P from the γ-position of ATP to EGFR peptide (AA 663-681 of the EGFR). The effect of IL-1β on kinase activity was determined using microsomal membranes derived from cells stimulated with IL-1β.

[2] = tested on: ceramide-activated protein kinase; details: for effect on EGFR peptide phosphorylation (in words): A-431
[3] = tested on: ceramide-activated protein kinase; details: HL-60; cholera toxin 10 nM, retinoic acid 0.5 μM, butyrate 0.5 mM
[4] = tested on: epidermal growth factor receptor (EGFR); details: A-431 cells; cited from earlier work
[5] = tested on: A-431 human epidermoid carcinoma cells; details: A-431 cells; cited from earlier work
[6] = tested on: ceramide-activated protein kinase; assay: Phosphoamino acid analysis of phosphorylated EGFR peptide; assay type: biochemical, human; details: A-431
Text: Reactions were done, and phosphorylated peptide was quantified as for FIG. 2. (Left) HPLC elution profile of samples with or without the EGFR peptide. (Right) Phosphoamino acid analysis of the phosphorylated peptide purified by HPLC. Phosphorylated amino acids (Y, […]; T, threonine; S, serine) were resolved by one-dimensional thin-layer electrophoresis and identified by ninhydrin staining of carrier phosphoamino acids and autoradiography.
To determine which amino acid was phosphorylated, phosphoamino acid analysis of the peptide was done. The phosphopeptide peak obtained by HPLC was subjected to partial acid hydrolysis (1 hr at 110° C. in 6M HCl). The hydrolysates were dried, resuspended in 250 μl of water, and applied to a Dowex AG1-X8 column (Bio-Rad). Amino acids were eluted with 0.5M HCl, dried, and analyzed by thin-layer electrophoresis, according to methods well known to those skilled in the art (26). Individual phosphoamino acids were identified by ninhydrin staining of carrier phosphoamino acids and by autoradiography.

[7] = tested on: ceramide-activated protein kinase; details: cited from earlier work
[8] = tested on: HL-60 cells; details: cited from earlier work
[9] = tested on: HL-60 cells; details: cited from earlier work; remark: listed apart in the source

## CCCCCCCCCCCCC/C=C/[C@@H](O)[C@@H](N)CO [sphingosine]
[1]; 10 nM to 1 μM
  enhancement of kinase activity: 1.5-2.5 of control
[2]
  effect on EGFR peptide phosphorylation (in words): similarly effective
[2]; sphingosine (0.001-3 μM), 2 minutes
  stimulation of EGFR peptide phosphorylation: 1.6 fold of control
[3]
  effect on kinase activity (in words): similarly as effective as C8-cer
[4]
  EGFR phosphorylation on Thr-669: enhanced phosphorylation of the EGFR on Thr-669; also recorded: stimulated phosphorylation of the EGFR on Thr-669; also recorded: induced epidermal growth factor receptor (EGFR) phosphorylation on Thr-669
[5]
  conversion to ceramide: rapidly converted to ceramide

## Ceramide
[6]
  phosphorylated residue: exclusively on the threonine residue
[2]; 2 minutes
  lowest effective concentration: 1 nM
[2]
  effect on EGFR peptide phosphorylation (in words): Only membrane activity was enhanced
[2]; listed as natural ceramide (Sigma type III)
  effect on EGFR peptide phosphorylation (in words): similarly effective
[2]; a-431 cells, 0.5 min, 0.5 µM
  increase in kinase activity: 2 -fold
[2]; a-431 cells, 2 min, 1 µM
  maximal effect on EGFR peptide phosphorylation: 2.1 -fold of control
[2]; abstract
  lowest effective concentration: 1 nM
[2]; ceramide 0.5 μM
  duration of stimulation of kinase activity: at least 15 minutes
  time at which stimulation of EGFR peptide phosphorylation was evident: ≤ 30 s
[2]; peptide phosphorylation, 2 minutes
  concentration for maximal effect: 1 µM
[2]; read-out: ED50 for EGFR peptide phosphorylation, 2 minutes
  EC50: ~30 nM
[3]
  effect on kinase activity (in words): induced a similar effect
[7]; ceramide 0.001 to 3 μM
  maximum enhancement of kinase activity: two-fold of the control
[4]
  EGFR phosphorylation on Thr-669: induced identical effects; also recorded: induced identical phosphorylation

## NH2 -Glu-Leu-Val-Glu-Pro-Leu-Thr-Pro-Ser-Gly-Glu-Ala-Pro-Asn-Gln-Ala-Leu-Leu-Arg-COOH (H-ELVEPLTPSGEAPNQALLR-OH) [EGFR peptide, EGFR peptide (amino acids 663-681)]
[1]; EL-4, baseline
  maximum reaction velocity: 12.5 pmol min^-1 mg^-1 of microsomal membrane protein
[1]; EL-4 microsomal membrane, baseline
  Michaelis constant (Km) for EGFR peptide: 0.15 mg/mL
[6]
  phosphorylated residue: only threonine-669 served as substrate
[2]; A-431, 5 minutes
  Apparent Km for EGFR peptide: 0.25 mg/mL
[2]; A-431, EGFR peptide substrate
  Apparent Vmax: 100-200 pmol.min^-` /mg of protein^-1
[7]; EGFR peptide substrate
  maximum velocity (V°max): 50 to 100 pmol per minute per milligram (pmol min^-1 mg^-1) of protein
[7]; nuclei-free supernates
  Michaelis constant (Km) for peptide: 0.25 mg/mL

B1: γ interferon: factor that induces monocytic differentiation of HL-60 cells (protein, UniProt P01579 24-161, looked up)
Interferon gamma: QDPYVKEAENLKKYFNAGHSDVADNGTLFLGILKNWKEESDRKIMQSQIVSFYFKLFKNFKDDQSIQKSVETIKEDMNVKFFNSNKKKRDDFEKLTNYSVTDLNVQRKAIHELIQVMAELSPAAKTGKRKRSQMLFRG
[8]
  sphingomyelin degradation to ceramide / ceramide level (in words): stimulate sphingomyelin degradation to ceramide
[9]
  monocytic differentiation: induce monocytic differentiation
